The NIST ThermoML archive (doi:10.1021/je0504156)
± gives the expanded uncertainty stated by the source.

Assay: xn = mol fraction of the nth substance listed
Details: 101 kPa, Liquid

## Cc1cccc(O)c1 [3-methylphenol] + OCCO
308.15 K, x1 = 0.0998
  mass density: 1088.36 ± 0.63 kg/m3
  viscosity: 11.72 ± 0.22 mPa·s
308.15 K, x1 = 0.1999
  mass density: 1077.36 ± 0.61 kg/m3
  viscosity: 12.32 ± 0.23 mPa·s
308.15 K, x1 = 0.3
  mass density: 1067.31 ± 0.6 kg/m3
  viscosity: 12.33 ± 0.23 mPa·s
308.15 K, x1 = 0.3996
  mass density: 1058.33 ± 0.59 kg/m3
  viscosity: 11.88 ± 0.22 mPa·s
308.15 K, x1 = 0.5
  mass density: 1050.38 ± 0.59 kg/m3
  viscosity: 11.2 ± 0.21 mPa·s
308.15 K, x1 = 0.5967
  mass density: 1043.44 ± 0.59 kg/m3
  viscosity: 10.37 ± 0.2 mPa·s
308.15 K, x1 = 0.7002
  mass density: 1036.6 ± 0.59 kg/m3
  viscosity: 9.452 ± 0.18 mPa·s
308.15 K, x1 = 0.8
  mass density: 1031.15 ± 0.59 kg/m3
  viscosity: 8.695 ± 0.17 mPa·s
308.15 K, x1 = 0.8989
  mass density: 1026.2 ± 0.6 kg/m3
  viscosity: 8.03 ± 0.16 mPa·s
308.15 K, x1 = 1
  mass density: 1021.64 ± 0.61 kg/m3
  viscosity: 7.701 ± 0.15 mPa·s
313.15 K, x1 = 0.0998
  mass density: 1084.66 ± 0.62 kg/m3
  viscosity: 9.704 ± 0.18 mPa·s
313.15 K, x1 = 0.1999
  mass density: 1073.58 ± 0.6 kg/m3
  viscosity: 10.13 ± 0.19 mPa·s
313.15 K, x1 = 0.3
  mass density: 1063.47 ± 0.59 kg/m3
  viscosity: 10.02 ± 0.19 mPa·s
313.15 K, x1 = 0.3996
  mass density: 1054.44 ± 0.58 kg/m3
  viscosity: 9.673 ± 0.18 mPa·s
313.15 K, x1 = 0.5
  mass density: 1046.47 ± 0.58 kg/m3
  viscosity: 9.067 ± 0.17 mPa·s
313.15 K, x1 = 0.5967
  mass density: 1039.51 ± 0.58 kg/m3
  viscosity: 8.417 ± 0.17 mPa·s
313.15 K, x1 = 0.7002
  mass density: 1032.66 ± 0.58 kg/m3
  viscosity: 7.67 ± 0.15 mPa·s
313.15 K, x1 = 0.8
  mass density: 1027.19 ± 0.58 kg/m3
  viscosity: 7.03 ± 0.14 mPa·s
313.15 K, x1 = 0.8989
  mass density: 1022.22 ± 0.59 kg/m3
  viscosity: 6.496 ± 0.14 mPa·s
313.15 K, x1 = 1
  mass density: 1017.63 ± 0.6 kg/m3
  viscosity: 6.12 ± 0.13 mPa·s
318.15 K, x1 = 0.0998
  mass density: 1080.98 ± 0.61 kg/m3
  viscosity: 8.113 ± 0.16 mPa·s
318.15 K, x1 = 0.1999
  mass density: 1069.79 ± 0.59 kg/m3
  viscosity: 8.371 ± 0.16 mPa·s
318.15 K, x1 = 0.3
  mass density: 1059.61 ± 0.58 kg/m3
  viscosity: 8.275 ± 0.16 mPa·s
318.15 K, x1 = 0.3996
  mass density: 1050.55 ± 0.57 kg/m3
  viscosity: 7.906 ± 0.16 mPa·s
318.15 K, x1 = 0.5
  mass density: 1042.56 ± 0.57 kg/m3
  viscosity: 7.441 ± 0.15 mPa·s
318.15 K, x1 = 0.5967
  mass density: 1035.59 ± 0.57 kg/m3
  viscosity: 6.893 ± 0.14 mPa·s
318.15 K, x1 = 0.7002
  mass density: 1028.7 ± 0.57 kg/m3
  viscosity: 6.322 ± 0.13 mPa·s
318.15 K, x1 = 0.8
  mass density: 1023.23 ± 0.57 kg/m3
  viscosity: 5.853 ± 0.12 mPa·s
318.15 K, x1 = 0.8989
  mass density: 1018.22 ± 0.58 kg/m3
  viscosity: 5.346 ± 0.12 mPa·s
318.15 K, x1 = 1
  mass density: 1013.6 ± 0.59 kg/m3
  viscosity: 5.022 ± 0.11 mPa·s
323.15 K, x1 = 0.0998
  mass density: 1077.28 ± 0.6 kg/m3
  viscosity: 6.869 ± 0.14 mPa·s
323.15 K, x1 = 0.1999
  mass density: 1065.98 ± 0.58 kg/m3
  viscosity: 7.015 ± 0.14 mPa·s
323.15 K, x1 = 0.3
  mass density: 1055.75 ± 0.57 kg/m3
  viscosity: 6.894 ± 0.14 mPa·s
323.15 K, x1 = 0.3996
  mass density: 1046.64 ± 0.56 kg/m3
  viscosity: 6.572 ± 0.14 mPa·s
323.15 K, x1 = 0.5
  mass density: 1038.63 ± 0.56 kg/m3
  viscosity: 6.182 ± 0.13 mPa·s
323.15 K, x1 = 0.5967
  mass density: 1031.63 ± 0.56 kg/m3
  viscosity: 5.763 ± 0.12 mPa·s
323.15 K, x1 = 0.7002
  mass density: 1024.74 ± 0.56 kg/m3
  viscosity: 5.27 ± 0.12 mPa·s
323.15 K, x1 = 0.8
  mass density: 1019.25 ± 0.57 kg/m3
  viscosity: 4.811 ± 0.11 mPa·s
323.15 K, x1 = 0.8989
  mass density: 1014.22 ± 0.57 kg/m3
  viscosity: 4.433 ± 0.099 mPa·s
323.15 K, x1 = 1
  mass density: 1009.56 ± 0.58 kg/m3
  viscosity: 4.158 ± 0.094 mPa·s
333.15 K, x1 = 0.0998
  mass density: 1069.86 ± 0.58 kg/m3
  viscosity: 5.133 ± 0.11 mPa·s
333.15 K, x1 = 0.1999
  mass density: 1058.35 ± 0.56 kg/m3
  viscosity: 5.087 ± 0.11 mPa·s
333.15 K, x1 = 0.3
  mass density: 1047.97 ± 0.55 kg/m3
  viscosity: 4.972 ± 0.11 mPa·s
333.15 K, x1 = 0.3996
  mass density: 1038.8 ± 0.54 kg/m3
  viscosity: 4.817 ± 0.11 mPa·s
333.15 K, x1 = 0.5
  mass density: 1030.72 ± 0.54 kg/m3
  viscosity: 4.45 ± 0.099 mPa·s
333.15 K, x1 = 0.5967
  mass density: 1023.71 ± 0.54 kg/m3
  viscosity: 4.145 ± 0.093 mPa·s
333.15 K, x1 = 0.7002
  mass density: 1016.76 ± 0.54 kg/m3
  viscosity: 3.794 ± 0.085 mPa·s
333.15 K, x1 = 0.8
  mass density: 1011.25 ± 0.55 kg/m3
  viscosity: 3.488 ± 0.079 mPa·s
333.15 K, x1 = 0.8989
  mass density: 1006.16 ± 0.56 kg/m3
  viscosity: 3.219 ± 0.073 mPa·s
333.15 K, x1 = 1
  mass density: 1001.44 ± 0.57 kg/m3
  viscosity: 2.98 ± 0.068 mPa·s
343.15 K, x1 = 0.0998
  mass density: 1060.26 ± 4 kg/m3
  viscosity: 3.81 ± 0.085 mPa·s
343.15 K, x1 = 0.1999
  mass density: 1048.59 ± 4 kg/m3
  viscosity: 3.82 ± 0.085 mPa·s
343.15 K, x1 = 0.3
  mass density: 1038.14 ± 4 kg/m3
  viscosity: 3.72 ± 0.083 mPa·s
343.15 K, x1 = 0.3996
  mass density: 1028.9 ± 4 kg/m3
  viscosity: 3.554 ± 0.08 mPa·s
343.15 K, x1 = 0.5
  mass density: 1020.81 ± 4 kg/m3
  viscosity: 3.332 ± 0.075 mPa·s
343.15 K, x1 = 0.5967
  mass density: 1013.76 ± 4 kg/m3
  viscosity: 3.096 ± 0.07 mPa·s
343.15 K, x1 = 0.7002
  mass density: 1006.79 ± 4 kg/m3
  viscosity: 2.858 ± 0.065 mPa·s
343.15 K, x1 = 0.8
  mass density: 1001.25 ± 4 kg/m3
  viscosity: 2.635 ± 0.061 mPa·s
343.15 K, x1 = 0.8989
  mass density: 996.13 ± 4 kg/m3
  viscosity: 2.426 ± 0.056 mPa·s
343.15 K, x1 = 1
  mass density: 991.33 ± 4 kg/m3
  viscosity: 2.231 ± 0.052 mPa·s
353.15 K, x1 = 0.0998
  mass density: 1055.21 ± 0.54 kg/m3
  viscosity: 2.995 ± 0.068 mPa·s
353.15 K, x1 = 0.1999
  mass density: 1043.24 ± 0.53 kg/m3
  viscosity: 2.967 ± 0.067 mPa·s
353.15 K, x1 = 0.3
  mass density: 1032.71 ± 0.51 kg/m3
  viscosity: 2.882 ± 0.065 mPa·s
353.15 K, x1 = 0.3996
  mass density: 1023.39 ± 0.51 kg/m3
  viscosity: 2.734 ± 0.062 mPa·s
353.15 K, x1 = 0.5
  mass density: 1015.21 ± 0.51 kg/m3
  viscosity: 2.566 ± 0.059 mPa·s
353.15 K, x1 = 0.5967
  mass density: 1008.1 ± 0.51 kg/m3
  viscosity: 2.401 ± 0.055 mPa·s
353.15 K, x1 = 0.7002
  mass density: 1001.08 ± 0.51 kg/m3
  viscosity: 2.237 ± 0.052 mPa·s
353.15 K, x1 = 0.8
  mass density: 995.5 ± 0.53 kg/m3
  viscosity: 2.048 ± 0.048 mPa·s
353.15 K, x1 = 0.8989
  mass density: 990.32 ± 0.56 kg/m3
  viscosity: 1.901 ± 0.045 mPa·s
353.15 K, x1 = 1
  mass density: 985.42 ± 0.58 kg/m3
  viscosity: 1.759 ± 0.042 mPa·s
